Assay results as given in US20250073180A1, “COMPOSITIONS COMPRISING NON-RACEMIC MIXTURES OF R- AND S-1,3-BUTANEDIOL AND USES THEREOF” (priority 2022, published 2025).

Assays:
human subjects [1] = test: Biphasic Alcohol Effects Scale (BAES) questionnaire, acute pilot consumer study; assay type: in vivo; conditions: 60 minutes following consumption of 20 g in a beverage; n=3 per group
Description: (§1) Two scales were utilized: subjective effects with Biphasic Alcohol Effects Scale (BAES), a validated tool to measure the effects of drinking alcohol (Martin, C. S., et al. 1993. Alcoholism, Clinical and Experimental Research 17 (1): 140-46), and GI Tolerance with a Modified Beverage Tolerability Questionnaire (m-BTQ; Chen., 0. T., et al. 2021. Nutrients 13 (6): 2066). Participants were asked to fast for at least 2 hours before consuming the product, and complete the m-BTQ and BAES at 60 minutes following the consumption of the product.
(§2) The study population was 6 individuals between 25-40 years old. Questionnaires for the m-BTQ and BAES are provided below in Tables 1 and 2.
(§3) The six participants were between 25-40 years old, were 100% Caucasian and all (100%) identified as male.

human subjects [2] = test: Modified Beverage Tolerability Questionnaire (m-BTQ), acute pilot consumer study; assay type: in vivo
Description: as §1, §2, §3

human volunteers = conditions: bolus doses of 0.5 g/kg bw or 0.7 g/kg bw; cited from earlier work
dogs = conditions: dietary levels of 0.5, 1.0 and 3.0% for two years; cited from earlier work
[3] = ECHA registration dossiers; cited from earlier work
rats = conditions: dietary levels of 1.0, 3.0 and 10% for two years; cited from earlier work
[4] = 25 g/day for 28 consecutive days; cited from earlier work

C[C@@H](O)CCO [R-1,3-butanediol]
Mean BAES-SED Composite Score (human subjects [1]): 22.3
Mean BAES-STIM Composite Score (human subjects [1]): 41.7
Mean Composite Tolerability Score (m-BTQ) (human subjects [2]; 60 minutes following consumption of 20 g in a beverage, fasted at least 2 hours, n=3 per group): 8
Tolerability (in words) (human subjects [2]; acute use, 20 g beverage, all participants): well tolerated by all participants

CC(O)CCO (stereo not drawn) [1,3-butanediol]
Side effects of bolus doses (human volunteers): nausea, euphoria and dizziness
Adverse effects attributable to ingestion (dogs): no adverse effects attributable to the ingestion
Acute oral, inhalation and dermal toxicity [3]: low
Adverse effects attributable to ingestion (rats): no adverse effects attributable to the ingestion

CCCCCC(=O)OCC[C@@H](C)OC(=O)CCCCC [BH-BD, bis-hexanoyl (R)-1,3-butanediol]
Side effects and adverse events [4]: only mild side effects and no adverse events
